Source: patent publication US20030203373A1 (priority 2002, published 2003)
“And” between values parts separate entries of the source, which are not always exact repeats. Equal entries are not always repeated. Where two headings read alike, the source gives them in different places. Square brackets hold non-standard residues; d marks the D form. Peptide text beside a SMILES is read from it. pGlu = O=C1CC[C@@H](C(=O)O)N1

Target: T1, ACE from pig kidney (Sus scrofa, UniProt F1RRW5)
T1 construct: 1 mU ACE from pig kidney (EC 3.4.15.1 (Sigma)); purchased Sigma; host or cells: pig kidney (tissue-derived enzyme)
T1 sequence (F1RRW5 34-1309): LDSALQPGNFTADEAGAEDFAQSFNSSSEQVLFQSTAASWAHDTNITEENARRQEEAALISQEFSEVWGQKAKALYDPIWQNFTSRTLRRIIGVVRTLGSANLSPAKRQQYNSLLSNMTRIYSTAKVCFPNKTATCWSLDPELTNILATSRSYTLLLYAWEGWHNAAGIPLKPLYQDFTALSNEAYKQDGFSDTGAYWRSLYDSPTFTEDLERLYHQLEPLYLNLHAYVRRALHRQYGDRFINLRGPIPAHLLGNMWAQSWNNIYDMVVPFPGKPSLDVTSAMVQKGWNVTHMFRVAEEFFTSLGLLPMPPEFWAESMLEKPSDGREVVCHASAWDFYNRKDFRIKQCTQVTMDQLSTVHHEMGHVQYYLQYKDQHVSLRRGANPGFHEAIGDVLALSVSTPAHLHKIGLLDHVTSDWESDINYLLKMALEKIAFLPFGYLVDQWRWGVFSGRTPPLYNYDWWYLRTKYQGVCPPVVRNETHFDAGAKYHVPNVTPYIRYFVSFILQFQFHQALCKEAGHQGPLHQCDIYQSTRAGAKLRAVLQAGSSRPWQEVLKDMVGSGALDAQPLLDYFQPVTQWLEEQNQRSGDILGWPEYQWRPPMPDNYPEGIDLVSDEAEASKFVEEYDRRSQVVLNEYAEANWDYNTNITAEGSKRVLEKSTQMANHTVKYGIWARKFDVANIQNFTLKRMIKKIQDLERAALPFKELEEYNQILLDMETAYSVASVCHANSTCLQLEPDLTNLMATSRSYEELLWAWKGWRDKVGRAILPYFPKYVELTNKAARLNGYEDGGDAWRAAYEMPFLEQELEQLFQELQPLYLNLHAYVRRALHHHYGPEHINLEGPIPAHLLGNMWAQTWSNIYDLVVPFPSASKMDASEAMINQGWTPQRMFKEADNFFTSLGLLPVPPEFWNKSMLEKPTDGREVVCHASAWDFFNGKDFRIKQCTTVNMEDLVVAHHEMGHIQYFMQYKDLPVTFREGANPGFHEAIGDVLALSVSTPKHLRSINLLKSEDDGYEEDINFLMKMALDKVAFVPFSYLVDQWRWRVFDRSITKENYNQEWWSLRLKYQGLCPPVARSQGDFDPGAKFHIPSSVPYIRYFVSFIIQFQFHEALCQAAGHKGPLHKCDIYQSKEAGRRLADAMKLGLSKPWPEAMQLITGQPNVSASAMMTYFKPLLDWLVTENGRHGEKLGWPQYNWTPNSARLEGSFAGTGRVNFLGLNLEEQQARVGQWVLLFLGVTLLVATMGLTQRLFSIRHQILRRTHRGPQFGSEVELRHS
Test: biochemical
Type: biochemical
Source text: These peptides were investigated for their inhibitory effect using an in vitro-ACE-inhibitor-assay with an angiotensin-converting-enzyme derived from pig kidney. Hippuryl-histidyl-leucin was used as a substrate. […] A concrete experimental description is given below.
The principle of the ACE-inhibition-assay was established by Chejung, H. S., Cushman, D. W.: “Inhibition of homogenous angiotensin converting enzyme of rabbit lung by synthetic venom peptides of Bothrops jararaca.” in Biochimica et Biophysica Acta 293, 451-563 (1973).
The assay was performed in 96 well HTRF-plates (Packard). The concentrations used for each well were:
1 mU ACE from pig kidney (EC 3.4.15.1 (Sigma)) in 30 μl of assay buffer (25 mM HEPES; 0,3 M NaCl, pH 8,2) and 20 μl inhibitor dissolved in assay buffer (0,35-200 μM). The reaction was started by adding 50 μl of 2 mM hippuryl-histidyl-leucin (Sigma) in assay buffer. The reaction was performed at room temperature (22° C.) for 30 minutes and terminated by adding 50 μl of 2 M NaOH. Afterwards 50 μl of 0,5% ortho-phtalaldehyd (Sigma) in methanol were added, 5 minutes later followed by 50 μl of 2,5 M HCl-solution to stabilize the developed fluorescence product.
The results were used to calculate the % inhibition. The IC50-values were determined graphically from a curve showing the dose-reaction ratio.
In order to minimize errors due to time-dependent differences, all pipetting steps were performed in a precise time schedule.

[1] = inhibitor 0.78125 μM, replicates A-D
[2] = inhibitor 1.5625 μM, replicates A-D
[3] = inhibitor 3.125 μM, replicates A-D
[4] = inhibitor 6.25 μM, replicates A-D
[5] = inhibitor 12.5 μM, replicates A-D
[6] = inhibitor 25 μM, replicates A-D
[7] = inhibitor 50 μM, replicates A-D
[8] = inhibitor 100 μM, replicates A-D
[9] = inhibitor 200 μM, replicates A-D

Structure (SMILES): CC[C@H](C)[C@H](NC(=O)[C@H](CCC(N)=O)NC(=O)[C@@H]1CCCN1C(=O)[C@H](CCCNC(=N)N)NC(=O)[C@@H]1CCCN1C(=O)[C@H](Cc1c[nH]c2ccccc12)NC(=O)[C@@H]1CCC(=O)N1)C(=O)N1CCC[C@H]1C(=O)N1CCC[C@H]1C(=O)O [BPP9a, reference compound]
- IC50: 0.097 µM
- fluorescence reading (ACE Inhibitor Assay) (inhibitor 0.0097 μM, replicates A-D): 710140 and 732003 and 790803 and 704452
- % inhibition (ACE Inhibitor Assay) (inhibitor 0.0097 μM, replicates A-D, 0.0097 µM): 17.32% and 14.76% and 7.86% and 17.99%
- fluorescence reading (ACE Inhibitor Assay) (inhibitor 0.0195 μM, replicates A-D): 651703 and 661931 and 697146 and 649942
- % inhibition (ACE Inhibitor Assay) (inhibitor 0.0195 μM, replicates A-D, 0.0195 µM): 22.97% and 18.85% and 24.38%
- fluorescence reading (ACE Inhibitor Assay) (inhibitor 0.039 μM, replicates A-D): 555538 and 591749 and 454421 and 628809
- % inhibition (ACE Inhibitor Assay) (inhibitor 0.039 μM, replicates A-D, 0.039 µM): 35.44% and 31.2% and 47.3% and 26.86%
- fluorescence reading (ACE Inhibitor Assay) (inhibitor 0.078 μM, replicates A-D): 487053 and 445495 and 462323 and 446174
- % inhibition (ACE Inhibitor Assay) (inhibitor 0.078 μM, replicates A-D, 0.078 µM): 48.35% and 46.37% and 48.26%
- fluorescence reading (ACE Inhibitor Assay) (inhibitor 0.15625 μM, replicates A-D): 317736 and 311280 and 262186 and 309352
- % inhibition (ACE Inhibitor Assay) (inhibitor 0.15625 μM, replicates A-D, 0.15625 µM): 64.08% and 69.83% and 64.3%
- fluorescence reading (ACE Inhibitor Assay) (inhibitor 0.3125 μM, replicates A-D): 143514 and 147997 and 149103 and 141700
- % inhibition (ACE Inhibitor Assay) (inhibitor 0.3125 μM, replicates A-D, 0.3125 µM): 83.22% and 83.09% and 83.96%
- fluorescence reading (ACE Inhibitor Assay) (inhibitor 0.625 μM, replicates A-D): 60333 and 60929 and 57514 and 55616
- % inhibition (ACE Inhibitor Assay) (inhibitor 0.625 μM, replicates A-D, 0.625 µM): 93.43% and 93.82% and 94.05%
- fluorescence reading (ACE Inhibitor Assay) (inhibitor 1.25 μM, replicates A-D): 27485 and 26994 and 27156 and 25833
- % inhibition (ACE Inhibitor Assay) (inhibitor 1.25 μM, replicates A-D, 1.25 µM): 97.4% and 97.38% and 97.54%
- fluorescence reading (ACE Inhibitor Assay) (inhibitor 2.5 μM, replicates A-D): 13903 and 14148 and 15119 and 13979
- % inhibition (ACE Inhibitor Assay) (inhibitor 2.5 μM, replicates A-D, 2.5 µM): 98.91% and 98.79% and 98.93%
- fluorescence reading (ACE Inhibitor Assay) (inhibitor 5 μM, replicates A-D): 9634 and 9626 and 9656 and 10561
- % inhibition (ACE Inhibitor Assay) (inhibitor 5 μM, replicates A-D, 5 µM): 99.33%
- inhibition at 0.0195 µM (read-out: % inhibition (ACE Inhibitor Assay), inhibitor 0.0195 μM, replicates A-D): 24.2%
- inhibition at 0.078 µM (read-out: % inhibition (ACE Inhibitor Assay), inhibitor 0.078 μM, replicates A-D): 43.5%
- inhibition at 0.15625 µM (read-out: % inhibition (ACE Inhibitor Assay), inhibitor 0.15625 μM, replicates A-D): 63.3%
- inhibition at 0.3125 µM (read-out: % inhibition (ACE Inhibitor Assay), inhibitor 0.3125 μM, replicates A-D): 83.8%
- inhibition at 0.625 µM (read-out: % inhibition (ACE Inhibitor Assay), inhibitor 0.625 μM, replicates A-D): 93.5%
- inhibition at 1.25 µM (read-out: % inhibition (ACE Inhibitor Assay), inhibitor 1.25 μM, replicates A-D): 97.3%
- inhibition at 2.5 µM (read-out: % inhibition (ACE Inhibitor Assay), inhibitor 2.5 μM, replicates A-D): 98.9%
- inhibition at 5 µM (read-out: % inhibition (ACE Inhibitor Assay), inhibitor 5 μM, replicates A-D): 99.4%

Structure (SMILES): CC(C)C[C@H](NC(=O)[C@@H]1CCCN1C(=O)[C@@H](N)CO)C(=O)N1CCC[C@H]1C(=O)N[C@@H](CCC(=O)O)C(=O)N[C@H](C(=O)N1CCC[C@H]1C(=O)N1CCC[C@H]1C(=O)O)C(C)C [Peptide S547]
- IC50 (ACE from pig kidney, determined graphically, read-out: IC50-value (ACE inhibition)): 27 µM
- fluorescence reading (ACE Inhibitor Assay) (inhibitor 0.39 μM, replicates A-D): 968576 and 976911 and 1033152 and 933502
- % inhibition (ACE Inhibitor Assay) (inhibitor 0.39 μM, replicates A-D, 0.39 µM): 6.82% and 6.02% and 0.575% and 10.22%
- fluorescence reading (ACE Inhibitor Assay) [1]: 935415 and 959358 and 928034 and 939702
- inhibition at 0.78125 µM [1]: 10%
- % inhibition (ACE Inhibitor Assay) (inhibitor 0.78125 μM, replicates A-D, 0.78125 µM): 7.72% and 10.75% and 9.62%
- fluorescence reading (ACE Inhibitor Assay) [2]: 885259 and 942952 and 905782 and 900439
- inhibition at 1.5625 µM [2]: 14.9%
- % inhibition (ACE Inhibitor Assay) (inhibitor 1.5625 μM, replicates A-D, 1.5625 µM): 9.3% and 12.9% and 13.42%
- fluorescence reading (ACE Inhibitor Assay) [3]: 853233 and 874120 and 919377 and 814056
- inhibition at 3.125 µM [3]: 18%
- % inhibition (ACE Inhibitor Assay) (inhibitor 3.125 μM, replicates A-D, 3.125 µM): 15.96% and 11.6% and 21.78%
- fluorescence reading (ACE Inhibitor Assay) [4]: 737068 and 749780 and 773384 and 715138
- inhibition at 6.25 µM [4]: 29.2%
- % inhibition (ACE Inhibitor Assay) (inhibitor 6.25 μM, replicates A-D, 6.25 µM): 28% and 25.72% and 31.35%
- fluorescence reading (ACE Inhibitor Assay) [5]: 661504 and 674042 and 682861 and 660883
- inhibition at 12.5 µM [5]: 36.5%
- % inhibition (ACE Inhibitor Assay) (inhibitor 12.5 μM, replicates A-D, 12.5 µM): 35.33% and 34.48% and 36.6%
- fluorescence reading (ACE Inhibitor Assay) [6]: 561516 and 529553 and 559590 and 501835
- inhibition at 25 µM [6]: 46.2%
- % inhibition (ACE Inhibitor Assay) (inhibitor 25 μM, replicates A-D, 25 µM): 49.3% and 46.4% and 52%
- fluorescence reading (ACE Inhibitor Assay) [7]: 367055 and 382045 and 460226 and 346051
- inhibition at 50 µM [7]: 65%
- % inhibition (ACE Inhibitor Assay) (inhibitor 50 μM, replicates A-D, 50 µM): 63.59% and 56.02% and 67.07%
- fluorescence reading (ACE Inhibitor Assay) [8]: 229409 and 229360 and 232610 and 214324
- inhibition at 100 µM [8]: 78.4%
- % inhibition (ACE Inhibitor Assay) (inhibitor 100 μM, replicates A-D, 100 µM): 78.05% and 79.82%
- fluorescence reading (ACE Inhibitor Assay) [9]: 115847 and 125213 and 123605 and 113488
- inhibition at 200 µM [9]: 89.4%
- % inhibition (ACE Inhibitor Assay) (inhibitor 200 μM, replicates A-D, 200 µM): 88.45% and 88.6% and 89.58%

Structure (SMILES): CC[C@H](C)[C@H](NC(=O)[C@H](CC(C)C)NC(=O)[C@@H]1CCCN1C(=O)[C@H](CCSC)NC(=O)[C@@H]1CCC(=O)N1)C(=O)N1CCC[C@H]1C(=O)N[C@@H](CCCNC(=N)N)C(=O)N[C@@H](C)C(=O)N[C@@H](CO)C(=O)N[C@@H](CC(=O)O)C(=O)N[C@@H](CCC(=O)O)C(=O)N[C@@H](CC(N)=O)C(=O)N[C@H](C(=O)N1CCC[C@H]1C(=O)N1CCC[C@H]1C(=O)O)C(C)C [Peptide S682] ([pGlu]MPLIPRASDENVPP-OH)
- IC50: 150 µM
